Experimental data: US10208081B2, “Bile acid derivatives as FXR/TGR5 agonists and methods of use thereof” (Enanta Pharmaceuticals, Inc., priority 2014, dated 2019)

Target: human FXR (NR1H4) (Homo sapiens (Human), UniProt Q96RI1)
Assay: Human FXR (NR1H4) Assay (Gal4 promoter driven luciferase reporter, Indigo Bioscience kit IB00601)
Type: cell-based
Conditions: for Efficacy (%): efficacy normalized to CDCA set as 100%; for EC50: potency ranges
Outline: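 CHO reporter cells expressing human FXR with Gal4-driven, FXR-responsive luciferase treated with compound doses (0.2% DMSO) for 22 hours at 37° C. Luciferase luminescence then measured as surrogate of FXR activation for potency and efficacy.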

Chain of human FXR (NR1H4) (Q96RI1 whole entry, the tested form may be a part): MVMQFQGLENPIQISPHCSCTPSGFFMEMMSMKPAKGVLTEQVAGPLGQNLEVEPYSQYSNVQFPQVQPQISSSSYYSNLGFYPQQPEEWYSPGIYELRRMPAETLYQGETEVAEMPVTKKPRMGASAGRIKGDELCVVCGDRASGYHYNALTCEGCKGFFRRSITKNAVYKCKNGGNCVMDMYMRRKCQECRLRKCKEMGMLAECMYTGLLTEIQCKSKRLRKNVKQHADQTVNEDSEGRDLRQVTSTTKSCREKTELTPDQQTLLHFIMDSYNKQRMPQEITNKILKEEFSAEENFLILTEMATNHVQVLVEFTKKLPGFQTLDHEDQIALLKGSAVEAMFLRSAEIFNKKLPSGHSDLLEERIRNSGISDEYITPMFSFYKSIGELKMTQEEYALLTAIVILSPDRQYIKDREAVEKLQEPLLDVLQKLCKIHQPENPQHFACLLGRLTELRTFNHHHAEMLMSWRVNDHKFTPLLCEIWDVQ

CC[C@H]1[C@@H](O)[C@@H]2[C@H](CC[C@]3(C)[C@@H]([C@H](C)CCNC(=O)NS(=O)(=O)c4cnn(CC)c4)CC[C@@H]23)[C@@]2(C)CC[C@@H](O)C[C@@H]12 [Example 109]
Efficacy (%): 219%
EC50: 0.1 to 1 µM

C[C@H](CCNC(=O)NS(=O)(=O)c1ccc(C(C)(C)C)cc1)[C@H]1CC[C@H]2[C@@H]3[C@H](O)C[C@@H]4C[C@H](O)CC[C@]4(C)[C@H]3CC[C@]12C [Example 110]
Efficacy (%): 320%
EC50: 1 to 10 µM

CC[C@H]1[C@@H](O)[C@@H]2[C@H](CC[C@]3(C)[C@@H]([C@H](C)CCNC(=O)NS(=O)(=O)c4ccc(C(C)(C)C)s4)CC[C@@H]23)[C@@]2(C)CC[C@@H](O)C[C@@H]12 [Example 111]
Efficacy (%): 314%
EC50: < 0.1 µM

CC[C@H]1[C@@H](O)[C@@H]2[C@H](CC[C@]3(C)[C@@H]([C@H](C)CCNC(=O)NS(=O)(=O)c4cccc(N(C)C)c4)CC[C@@H]23)[C@@]2(C)CC[C@@H](O)C[C@@H]12 [Example 112]
Efficacy (%): 287%
EC50: < 0.1 µM

CC[C@H]1[C@@H](O)[C@@H]2[C@H](CC[C@]3(C)[C@@H]([C@H](C)CNC(=O)NS(=O)(=O)c4ccc(C5CCCCC5)cc4)CC[C@@H]23)[C@@]2(C)CC[C@@H](O)C[C@@H]12 [Example 113]
Efficacy (%): 366%
EC50: < 0.1 µM

CC[C@H]1[C@@H](O)[C@@H]2[C@H](CC[C@]3(C)[C@@H]([C@H](C)CNC(=O)NS(=O)(=O)c4ccc(-c5ccccc5)s4)CC[C@@H]23)[C@@]2(C)CC[C@@H](O)C[C@@H]12 [Example 114]
Efficacy (%): 322%
EC50: < 0.1 µM

CC[C@H]1[C@@H](O)[C@@H]2[C@H](CC[C@]3(C)[C@@H]([C@H](C)CNC(=O)NS(=O)(=O)c4cccc(C(C)(C)C)c4)CC[C@@H]23)[C@@]2(C)CC[C@@H](O)C[C@@H]12 [Example 115]
Efficacy (%): 291%
EC50: 0.1 to 1 µM

CC[C@H]1[C@@H](O)[C@@H]2[C@H](CC[C@]3(C)[C@@H]([C@H](C)CNC(=O)NS(=O)(=O)c4cccc(OC(F)(F)F)c4)CC[C@@H]23)[C@@]2(C)CC[C@@H](O)C[C@@H]12 [Example 116]
Efficacy (%): 322%
EC50: < 0.1 µM

CC[C@H]1[C@@H](O)[C@@H]2[C@H](CC[C@]3(C)[C@@H]([C@H](C)CNC(=O)NS(=O)(=O)c4ccc5c(c4)OCO5)CC[C@@H]23)[C@@]2(C)CC[C@@H](O)C[C@@H]12 [Example 117]
Efficacy (%): 305%
EC50: < 0.1 µM

CC[C@H]1[C@@H](O)[C@@H]2[C@H](CC[C@]3(C)[C@@H]([C@H](C)CNC(=O)NS(=O)(=O)c4ccc(N5CCCCC5)cc4)CC[C@@H]23)[C@@]2(C)CC[C@@H](O)C[C@@H]12 [Example 118]
Efficacy (%): 267%
EC50: < 0.1 µM

CC[C@H]1[C@@H](O)[C@@H]2[C@H](CC[C@]3(C)[C@@H]([C@H](C)CCNC(=O)NS(=O)(=O)c4ccc(N(C)C)cc4)CC[C@@H]23)[C@@]2(C)CC[C@@H](O)C[C@@H]12 [Example 119]
Efficacy (%): 363%
EC50: < 0.1 µM

CC[C@H]1[C@@H](O)[C@@H]2[C@H](CC[C@]3(C)[C@@H]([C@H](C)CCNC(=O)NS(=O)(=O)c4ccc(C(=O)O)cc4)CC[C@@H]23)[C@@]2(C)CC[C@@H](O)C[C@@H]12 [Example 120]
Efficacy (%): 198%
EC50: 1 to 10 µM

CC[C@H]1[C@@H](O)[C@@H]2[C@H](CC[C@]3(C)[C@@H]([C@H](C)CNC(=O)NS(=O)(=O)c4cccc(N5CCCCC5)c4)CC[C@@H]23)[C@@]2(C)CC[C@@H](O)C[C@@H]12 [Example 121]
Efficacy (%): 199%
EC50: 0.1 to 1 µM

CC[C@H]1[C@@H](O)[C@@H]2[C@H](CC[C@]3(C)[C@@H]([C@H](C)CCNC(=O)NS(=O)(=O)C(C)(C)CO)CC[C@@H]23)[C@@]2(C)CC[C@@H](O)C[C@@H]12 [Example 122]
Efficacy (%): 121%
EC50: 1 to 10 µM

CC[C@H]1[C@@H](O)[C@@H]2[C@H](CC[C@]3(C)[C@@H]([C@H](C)CCNC(=O)NS(=O)(=O)c4ccc(C(=O)OC)cc4)CC[C@@H]23)[C@@]2(C)CC[C@@H](O)C[C@@H]12 [Example 123]
Efficacy (%): 271%
EC50: 0.1 to 1 µM

CC[C@H]1[C@@H](O)[C@@H]2[C@H](CC[C@]3(C)[C@@H]([C@H](C)CCNC(=O)NS(N)(=O)=O)CC[C@@H]23)[C@@]2(C)CC[C@@H](O)C[C@@H]12 [Example 124]
Efficacy (%): 195%
EC50: 1 to 10 µM

CC[C@H]1[C@@H](O)[C@@H]2[C@H](CC[C@]3(C)[C@@H]([C@H](C)CCNC(=O)NS(=O)(=O)NC)CC[C@@H]23)[C@@]2(C)CC[C@@H](O)C[C@@H]12 [Example 125]
Efficacy (%): 256%
EC50: 1 to 10 µM

CC[C@H]1[C@@H](O)[C@@H]2[C@H](CC[C@]3(C)[C@@H]([C@H](C)CCNC(=O)NS(=O)(=O)NC)CC[C@@H]23)[C@@]2(C)CC[C@@H](OC(=O)C(F)(F)F)C[C@@H]12 [Example 126]
Efficacy (%): 238%
EC50: 1 to 10 µM

CC[C@H]1[C@@H](O)[C@@H]2[C@H](CC[C@]3(C)C([C@H](C)CCNS(=O)(=O)c4ccccc4)CC[C@@H]23)[C@@]2(C)CC[C@@H](O)C[C@@H]12 (stereo partly drawn) [Example 130]
Efficacy (%): 146%
EC50: 1 to 10 µM

CC[C@H]1[C@@H](O)[C@@H]2[C@H](CC[C@]3(C)[C@@H]([C@H](C)CCNS(=O)(=O)O)CC[C@@H]23)[C@@]2(C)CC[C@@H](O)C[C@@H]12 [Example 131]
Efficacy (%): 8%
EC50: 1 to 10 µM

CC[C@H]1[C@@H](O)[C@@H]2[C@H](CC[C@]3(C)[C@@H]([C@H](C)CCNS(=O)(=O)CC(=O)O)CC[C@@H]23)[C@@]2(C)CC[C@@H](O)C[C@@H]12 [Example 132]
Efficacy (%): 7%
EC50: 1 to 10 µM

CC[C@H]1[C@@H](O)[C@@H]2[C@H](CC[C@]3(C)[C@@H]([C@H](C)CCNS(=O)(=O)c4cccc(N5CCCCC5)c4)CC[C@@H]23)[C@@]2(C)CC[C@@H](O)C[C@@H]12 [Example 133]
Efficacy (%): 80%
EC50: > 10 µM

CC[C@H]1[C@@H](O)[C@@H]2[C@H](CC[C@]3(C)[C@@H]([C@H](C)CCNS(=O)(=O)c4ccc(C(C)(C)C)s4)CC[C@@H]23)[C@@]2(C)CC[C@@H](O)C[C@@H]12 [Example 134]
Efficacy (%): 19%

CC[C@H]1[C@@H](O)[C@@H]2[C@H](CC[C@]3(C)[C@@H]([C@H](C)CCCNS(=O)(=O)[O-])CC[C@@H]23)[C@@]2(C)CC[C@@H](O)C[C@@H]12.[Na+] [Example 135]
Efficacy (%): 4%
EC50: 1 to 10 µM

CC[C@H]1[C@@H](O)[C@@H]2[C@H](CC[C@]3(C)[C@@H]([C@H](C)CCCCNS(=O)(=O)C(C)(C)C)CC[C@@H]23)[C@@]2(C)CC[C@@H](O)C[C@@H]12 [Example 136]
Efficacy (%): 159%
EC50: 1 to 10 µM

CC[C@H]1[C@@H](O)[C@@H]2[C@H](CC[C@]3(C)[C@@H]([C@H](C)CCCCNS(=O)(=O)c4ccccc4)CC[C@@H]23)[C@@]2(C)CC[C@@H](O)C[C@@H]12 [Example 137]
Efficacy (%): 105%
EC50: 1 to 10 µM

CC[C@H]1[C@@H](O)[C@@H]2[C@H](CC[C@]3(C)[C@@H]([C@H](C)CCNS(=O)(=O)C(C)(C)C(=O)O)CC[C@@H]23)[C@@]2(C)CC[C@@H](O)C[C@@H]12 [Example 138]
Efficacy (%): 2%
EC50: 1 to 10 µM

CC[C@H]1[C@@H](O)[C@@H]2[C@H](CC[C@]3(C)[C@@H]([C@H](C)CCNS(=O)(=O)C(C)(C)C)CC[C@@H]23)[C@@]2(C)CC[C@@H](O)C[C@@H]12 [Example 139]
Efficacy (%): 138%
EC50: 1 to 10 µM

CC[C@H]1[C@@H](O)[C@@H]2[C@H](CC[C@]3(C)[C@@H]([C@H](C)CNS(=O)(=O)CCC(=O)O)CC[C@@H]23)[C@@]2(C)CC[C@@H](O)C[C@@H]12 [Example 140]
Efficacy (%): 1%

CC[C@H]1[C@@H](O)[C@@H]2[C@H](CC[C@]3(C)[C@@H]([C@H](C)CCNS(=O)(=O)CCC(=O)O)CC[C@@H]23)[C@@]2(C)CC[C@@H](O)C[C@@H]12 [Example 141]
Efficacy (%): 16%
EC50: 1 to 10 µM

CC[C@H]1[C@@H](O)[C@@H]2[C@H](CC[C@]3(C)[C@@H]([C@H](C)CNS(=O)(=O)c4cccc(N5CCCCC5)c4)CC[C@@H]23)[C@@]2(C)CC[C@@H](O)C[C@@H]12 [Example 142]
Efficacy (%): 7%

CC[C@H]1[C@@H](O)[C@@H]2[C@H](CC[C@]3(C)[C@@H]([C@H](C)CNS(=O)(=O)C(C)(C)C)CC[C@@H]23)[C@@]2(C)CC[C@@H](O)C[C@@H]12 [Example 143]
Efficacy (%): 6%
